Tests used:
[1] = molecular target: T1, human adenosine A2A receptor (Homo sapiens, UniProt P29274); assay: [3H]-SCH-58261 binding assay, human adenosine A2A receptor (CHO cell membranes, SPA); details: recombinant human A2A receptor in CHO membranes; [3H]-SCH-58261 1 nM; Ki by Cheng-Prussoff equation; read-out: hA2 (pKi) (converted)
T1 construct: expressed in transfected cells; host or cells: CHO cells, semliki forest virus expression system; membrane preparation
Procedure: Human Adenosine A2A Receptor
The human adenosine A2A receptor was recombinantly expressed in Chinese hamster ovary (CHO) cells using the semliki forest virus expression system. Cells were harvested, washed twice by centrifugation, homogenized and again washed by centrifugation. The final washed membrane pellet was suspended in a Tris (50 mM) buffer containing 120 mM NaCl, 5 mM KCl, 2 mM CaCl2 and 10 mM MgCl2 (pH 7.4) (buffer A). The [^3H]-SCH-58261 (Dionisotti et al., 1997, Br J Pharmacol 121, 353; 1nM) binding assay was carried out in 96-well plates in the presence of 2.5 μg of membrane protein, 0.5 mg of Ysi-poly-l-lysine SPA beads and 0.1 U adenosine deaminase in a final volume of 200 μl of buffer A. Non-specific binding was defined using xanthine amine congener (XAC; 2 μM). Compounds were tested at 10 concentrations from 10 μM-0.3 nM. All assays were conducted in duplicate and repeated at least two times. Assay plates were incubated for 1 hour at room temperature before centrifugation and then bound ligand determined using a Packard Topcount scintillation counter. IC50 values were calculated using a non-linear curve fitting program and Ki values calculated using the Cheng-Prussoff equation.

T1 sequence (P29274 whole entry): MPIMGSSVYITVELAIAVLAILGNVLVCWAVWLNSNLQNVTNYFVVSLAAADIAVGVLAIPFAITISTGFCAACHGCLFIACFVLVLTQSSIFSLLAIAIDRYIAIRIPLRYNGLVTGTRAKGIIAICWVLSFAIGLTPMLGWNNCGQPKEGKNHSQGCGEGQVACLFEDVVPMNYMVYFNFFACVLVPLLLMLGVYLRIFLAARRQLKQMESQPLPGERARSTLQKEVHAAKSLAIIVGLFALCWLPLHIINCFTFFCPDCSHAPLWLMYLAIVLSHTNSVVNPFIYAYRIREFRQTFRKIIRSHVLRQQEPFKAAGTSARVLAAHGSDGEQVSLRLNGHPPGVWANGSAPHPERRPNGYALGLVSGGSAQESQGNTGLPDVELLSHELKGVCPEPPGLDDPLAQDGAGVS

Structure (SMILES) | Ki [1] | melting point
COc1ccc(N2CCOCC2)c2sc(NC(=O)N(C)C3CCC(CO)C3)nc12 (racemic) [Example 5, (rac),(cis)-1-(3-Hydroxymethyl-cyclopentyl)-3-(4-methoxy-7-morpholin-4-yl-benzothiazol-2-yl)-1-methyl-urea] | 3.98 nM | 115 to 118 °C
COc1ccc(N2CCOCC2)c2sc(NC(=O)N(C)C3CC4CCC3C4)nc12 (racemic) [Example 6, 1-(endo)-(rac)-Bicyclo[2.2.1]hept-2-yl-3-(4-methoxy-7-morpholin-4-yl-benzothiazol-2-yl)-1-methyl-urea] | 7.94 nM | 199 to 202 °C
COc1ccc(N2CCOCC2)c2sc(NC(=O)N(C)C3CC4CCC3O4)nc12 (single isomer, unassigned) [Example 7, (exo)-(+)-3-(4-Methoxy-7-morpholin-4-yl-benzothiazol-2-yl)-1-methyl-1-(7-oxa-bicyclo[2.2.1]hept-2-yl)-urea] | 3.16 nM | 202 to 204 °C
COc1ccc(N2CCOCC2)c2sc(NC(=O)N(C)C3CC4CCC3O4)nc12 (single isomer, unassigned) [Example 8, (exo)-(−)-3-(4-Methoxy-7-morpholin-4-yl-benzothiazol-2-yl)-1-methyl-1-(7-oxa-bicyclo[2.2.1]hept-2-yl)-urea] | 10 nM | 202 to 203 °C
COc1ccc(N2CCOCC2)c2sc(NC(=O)N(C)C3CCC(C(F)(F)F)CC3)nc12 (stereo not drawn) [Example 1, 3-(4-Methoxy-7-morpholin-4-yl-benzothiazol-2-yl)-1-methyl-1-(4-trifluoromethyl-cyclohexyl)-urea] | 20 nM | 157 to 167 °C
COc1ccc(N2CCOCC2)c2sc(NC(=O)N(C)[C@H]3CC[C@H](C)CC3)nc12 [Example 2, (trans)-3-(4-Methoxy-7-morpholin-4-yl-benzothiazol-2-yl)-1-methyl-1-(4-methyl-cyclohexyl)-urea] | 15.8 nM | 171 to 173 °C
COc1ccc(N2CCOCC2)c2sc(NC(=O)N(C)[C@H]3CC[C@H](CO)CC3)nc12 [Example 3, (trans)-1-(4-Hydroxymethyl-cyclohexyl)-3-(4-methoxy-7-morpholin-4-yl-benzothiazol-2-yl)-1-methyl-urea] | 15.8 nM | 190 °C (dec.)
COC[C@H]1CC[C@H](N(C)C(=O)Nc2nc3c(OC)ccc(N4CCOCC4)c3s2)CC1 [Example 4, (trans)-1-(4-Methoxymethyl-cyclohexyl)-3-(4-methoxy-7-morpholin-4-yl-benzothiazol-2-yl)-1-methyl-urea] | 20 nM | 141 to 143 °C

Now from value to molecule:

Ki [1] | melting point | Structure (SMILES)
12.6 nM | 191 to 193 °C | COc1ccc(N2CCOCC2)c2sc(NC(=O)N(C)C3CC4CCC3O4)nc12 (racemic) [Example 9, (rac)-(endo)-3-(4-Methoxy-7-morpholin-4-yl-benzothiazol-2-yl)-1-methyl-1-(7-oxa-bicyclo[2.2.1]hept-2-yl)-urea]
7.94 nM | 189 °C | COc1ccc(N2CCOCC2)c2sc(NC(=O)N(C)C3CC4CC3CC4O)nc12 (racemic) [Example 10, (rac)-1-(5-exo-Hydroxy-bicyclo[2.2.1]hept-2-exo-yl)-3-(4-methoxy-7-morpholin-4-yl-benzothiazol-2-yl)-1-methyl-urea]
50.1 nM | 165 to 176 °C | COc1ccc(N2CCOCC2)c2sc(NC(=O)N(C)C34CC5CC(CC(C5)C3)C4)nc12 [Example 12, 1-Adamantan-1-yl-3-(4-methoxy-7-morpholin-4-yl-benzothiazol-2-yl)-1-methyl-urea]
10 nM | 229 to 231 °C | COc1ccc(N2CCOCC2)c2sc(NC(=O)N3CC4CCC(C3)O4)nc12 [Example 13, 8-Oxa-3-aza-bicyclo[3.2.1]octane-3-carboxylic acid (4-methoxy-7-morpholin-4-yl-benzothiazol-2-yl)-amide]

From patent publication US7285548B2, “Urea substituted benzothiazoles” (Hoffmann-La Roche Inc., priority 2003, dated 2007)
